In US20240115540A1, “METHODS FOR PROVIDING HEALTH BENEFITS IN ANIMALS” (Société des Produits Nestlé S.A., priority 2022, published 2024):

System: db/db mice
Experiment: CKD mice study: db/db mice fed test diets for 8 weeks (glomerular hyperfiltration, glycogen storage, kidney histology)
Assay type: in vivo
Method: The present study used db/db mice at 8 weeks of age for 8 weeks of intervention. The mice were divided into 4 groups of 9-10 mice administered with different blends (the Control group was administered with standard AIN-93M diet, the Dapa Group was administered standard AIN-93M augmented with dapagliflozin at 10 mg/kg, the RPB group was administered a standard diet augmented with a renal protection blend, the RPB+ group was administered a standard diet augmented with a renal protection blend that included medium chain triglycerides); the diets are shown in Table 1. The blends were administered to study glomerular hyperfiltration and glycogen storage in tissues. Final weekly food intake, final body weight, final blood glucose level, final lean body mass, and final fat mass of the groups is presented in Table 2. Also presented in table 2 were GFR progression, urine albumin/creatine ratio, urine protein/creatinine ratio, glomerulosclerosis score, Periodic acid-Schiff (PAS) staining scores for distal convoluted tubule (DCT) lumen, PAS staining scores for intranuclear inclusions distal tubules, and PAS staining scores for cytoplamis aggregates distal tubules.
In addition to the measurements of Table 2, the mice were measured for hyalinosis on a scoring system of no hyalinosis, intermediate hyalinosis, or severe hyalinosis, where hyalinosis refers to the thickening of the walls of the glomerular arterioles by the deposits of homogenous hyaline material. […] The control group had 1 mouse with no hyalinosis, 4 mice with intermediate hyalinosis, and 4 with significant hyalinosis; the dapa group had 2 mice with no hyalinosis, 5 mice with intermediate hyalinosis, and 2 mice with significant hyalinosis, the RPB group had 5 mice with no hyalinosis, 4 mice with intermediate hyalinosis, and 1 mouse with significant hyalinosis, and the RPB+ group had 2 mice with no hyalinosis and 8 mice with intermediate hyalinosis.

[1] = glomerular arterioles, groups of 9-10
[2] = kidney tissue, 8 weeks of intervention

CCOc1ccc(Cc2cc([C@@H]3O[C@H](CO)[C@@H](O)[C@H](O)[C@H]3O)ccc2Cl)cc1 [Dapa, dapagliflozin]
GFR progression (8 weeks of intervention): 0.01 mL/min | Blood glucose (final) (after 8 weeks of intervention): 464.78 mg/dL | Fat mass (final) (after 8 weeks of intervention): 23.99 g | Lean mass (final lean body mass) (after 8 weeks of intervention): 15.31 g | number of mice with intermediate hyalinosis [1]: 5 mice | number of mice with no hyalinosis [1]: 2 mice | number of mice with significant (severe) hyalinosis [1]: 2 mice | Glomerulosclerosis score [2]: 1.83 | PAS DCT lumen (PAS staining score, distal convoluted tubule lumen) [2]: 1.44 | PAS cytoplasmic aggregates DT (PAS staining score, distal tubules) [2]: 1.78 | PAS intranuclear inclusions DT (PAS staining score, distal tubules) [2]: 2.11 | Albumin/Creatinine ratio (urine, 8 weeks of intervention): 181.54 | Protein/Creatinine ratio (urine, 8 weeks of intervention): 36.92
